According to patent publication US20100272811A1 (priority 2008, published 2010):
Where two headings read alike, the source gives them in different places.

Assays:
[1] = background statement; cited from earlier work
[2] = Pharmacokinetic profile of trospium powder formulations administered to rats via insufflation; assay type: in vivo, Sprague-Dawley rats; details: rat, intratracheal insufflation, approx. 200 μg trospium, plasma, mean ± standard error
Description: Male Sprague-Dawley rats (weight 400±50 grams) were administered various powder formulations of trospium by insufflation. The rats were divided into four groups of four rats as follows: • Group A—Insufflated intratracheally with Leucine/Trospium/DPPC containing approximately 200 μg Trospium • Group B—Insufflated intratracheally with Leucine/Trospium/NaSaccharin containing approximately 200 μg Trospium • Group C—Insufflated intratracheally with Leucine/Citrate/NaSaccharin/Trospium containing approximately 200 μg Trospium • Group D—Insufflated intratracheally with Leucine/Trospium containing approximately 200 μg Trospium The formulations tested are described in Table 2.
Rats were anesthetized using inhaled Isofluorane. Drug powder was then intratracheally insufflated into each rat. All animals were allowed food and water ad libitum between blood collection time points. Blood samples were collected by a lateral tail vein after anesthesia. A syringe without an anticoagulant was used for blood collection and the whole blood was transferred to tubes containing K2 EDTA (MIRCOTAINER®; MFG# BD365974). The blood samples were processed (the tubes are inverted 15-20 times and centrifuged for 2 minutes at >14,000 g's to separate plasma). The plasma samples prepared in this manner were transferred to labeled plain tubes (MICROTAINER®; MFG# BD5962) and stored frozen at <−70° C. 250 ul of whole blood was obtained for each time point. Sample collection times were pre-insufflation, 2.5, 5.0, 7.5, 10, 15, 30, 60 and 120 minutes after insufflation.
Plasma samples were analyzed for trospium using an Ionspray LC/MS/MS (Liquid Chromatography coupled with Mass Spectrometery). Briefly, 100 ul of standard (trospium standard solutions in rat plasma), control or test samples were added to the wells of a 96-well plate. The trospium standard solutions were prepared by adding 100 ul of 1 ug/ml trospium chloride (in methanol) with rat plasma to yield a nominal concentration of 4000 pg/ml. Standard solutions in rat plasma were prepared as follows:
Controls were prepared by adding 1 ug/ml trospium chloride in methanol to rat plasma to yield concentrations of 2500 pg/ml, 800 pg/ml and 200 pg/ml of internal standard solution (2.5 ng/ml clidinium bromide in water) were added to all wells except those containing blank plasma samples. 20 ul of 50 mM ammonium acetate (pH 9.0) solution and 350 ul acetonitrile were added to all wells and the plate was shaken on an orbital shaker for 1-2 minutes. The plate was centrifuged at 2000×g for 5-7 minutes. The supernatant was removed added onto an Agilent 96-well plate and concentrated to dryness using a Speed Vacuum. The dry sample were then reconstituted with 100 ul of 50:50 methanol:water and analyzed by LC/MS/MS.
Quantitation was performed using a weighted (1/×) linear regression analysis generated from standard samples.

| Structure (SMILES) | aqueous solubility [1] | AUC ([2]; male, Sprague-Dawley, inhaled or intranasal, 200 ug, read-out: AUC (converted)) [ng·h/mL] | Cmax ([2]; male, Sprague-Dawley, inhaled or intranasal, 200 ug, read-out: Cmax) [ng/mL] | Tmax ([2]; male, Sprague-Dawley, inhaled or intranasal, 200 ug, read-out: Tmax (converted)) [min] | solubility (30% ethanol with inline heating at 55° C.) | soluble in water (water at room temperature) | AUC [2] [ng·h/mL] | Cmax [2] [ng/mL] | Tmax [2] [min] |
| --- | --- | --- | --- | --- | --- | --- | --- | --- | --- |
| O=C(O[C@H]1C[C@H]2CC[C@@H](C1)[N+]21CCCC1)C(O)(c1ccccc1)c1ccccc1 [Trospium chloride, endo-3-[(hydroxydiphenyl-acetyl)oxy]spiro[8-azoniabicyclo[3.2.1]octane-8,-1′-pyrrolidinium]chloride, reference compound] | relatively high | 24.9 | 71.2 ± 6.26 | 6.31 | – | – | – | – | – |
| O=C(OC1C[C@H]2CC[C@@H](C1)[N+]21CCCC1)C(O)(c1ccccc1)c1ccccc1.O=C1NS(=O)(=O)c2ccccc21 (stereo partly drawn) [Trospium saccharin complex] | – | – | – | – | greater than 4 mg/ml | less than 0.4 mg/ml | 18.37 ± 1.28 | 43.50 ± 5.32 | 9.38 ± 1.40 |
